Experiments:
Format in all cases: cell-based
S. aureus = assay: MIC in a solid medium; conditions: expressed as dilution of the product
Text: (§1) This is shown by means of its MIC (minimum inhibiting concentration).
(§2) A MIC is obtained in a solid medium against S. aureus and P. aeruginosa.

P. aeruginosa = assay: MIC in a solid medium; conditions: expressed as dilution of the product
Text: as §1, §2

[1] = system: S. aureus, S. epidermidis, E. faecalis, E. coli, K. pneumoniae, E. cloacae, P. mirabilis, Acinetobacter baumanii, P. aeruginosa, C. albicans, Mycobacterium …; assay: Bactericidal effect on endodontic files, whole panel of Example 1; conditions: 20 minutes
Description: For the determination of these three effects, the methods described by Herruzo et al in 1999 were used (Rev Stomatol Chir maxillofac 1999; 100: 299-305), which may be resumed as follows: • a) Bactericidal effect on instruments difficult to disinfect: No. 25 endodontic files.
These files are contaminated in a micro-organism for 30 minutes and after drying for 15 minutes in an oblique position, they are introduced in the disinfectant for 5, 10, 15, 20, etc. minutes. Afterwards, they are removed and submerged in a tube with glass beads and a disinfectant inhibitor (broth plus 6% Tween 80, plus 0.5% sodium bisulphite and 0.5% sodium thiosulphate). The tubes are then stirred for 1 minute to detach the surviving micro-organisms, and samples are cultured over the entire surface of agar plates with the culture medium suitable for the tested micro-organism (Müeller-Hinton or Saboureaud-dextrose for yeasts or HIB for mycobacteria, etc.). […] It is recorded if there was any deterioration or not and the time at which it occurred. […]

spores of B subtilis = assay: Sporicidal effect on commercial cellulose germ holder; conditions: reference disinfectant as such; 10 minutes
Description: In this case, another more demanding test was used, since the sporicidal effect was assessed. It is similar to the bactericidal effect, but instead of contaminated instruments, a commercial, cellulose germ holder was used, impregnated in spores. In fact, this is the biological control used in sterilisation by ethylene oxide: spores of B subtilis, at a concentration guaranteed by the manufacturer (3M) and which exceed a million spores per germ holder. The rest was similar to that described in the endodontic file method.

| Molecule | MIC (minimum inhibiting concentration) (S. aureus) | MIC (minimum inhibiting concentration) (P. aeruginosa) | bactericidal effect against Mycobacterium [1] | reduction of the spore inoculum (spores of B subtilis) [log 10] |
| --- | --- | --- | --- | --- |
| Didecyl-metyl-polyoxy-ethyl-ammonium propionate | 1/20480 | 1/160 |  |  |
| O=CCCCC=O [2% glutaraldehyde, glutaraldehyde] |  |  | did not completely destroyed the inoculum | 1.5 |
| [H]/N=C(\N/C(=N/[H])NCCCCCCNC(=N)NC(=N)Nc1ccc(Cl)cc1)Nc1ccc(Cl)cc1 [Clo, Chlorhexidine] | 1/20480 | 1/2560 |  |  |

From patent US6908628B2, “Disinfectant and antiseptic composition” (priority 2001, dated 2005)
